Measurements taken from US6603023B2 (priority 1996, dated 2003).
“And” between values parts separate entries of the source, which are not always exact repeats. Equal entries are not always repeated. Structures can show the parent of a compound that is named as a salt. Where two headings read alike, the source gives them in different places. Marks after values point to notes of the source that are not given here.

Legend:
[1] = in vivo; settings: male, athymic nude (nu/nu), outbred, Swiss background, mouse, in vivo, ip
Procedure: DMSO was used as a vehicle for epothilones. Each mouse received ≦40 μL DMSO in all experiments.
Athymic nude mice (nu/nu) were used for MX-1 and MCF-7/Adr human mammary carcinoma xenografts. Mice were obtained from Taconic Laboratory Animals and Service (Germantown, N.Y.: outbred, Swiss background).

[2] = system: CCRF-CEM/VBL; experiment: CCRF-CEM/VBL xenograft in nude mice, i.v. 6 h infusion; format: in vivo; settings: for Lowest Average Tumor Size (T/C) / Tumor Disappearance: dEpoB 30 mg/kg Q2D x 5, Taxol 15 mg/kg Q2D x 5
Source text: Treatment on days 19, 21, 23, 25, 27, 39, 41, 43, 45, 47 and 53.

[3] = system: HT-29 Colon Adenocarcinoma; experiment: HT-29 xenograft; format: in vivo, nude mice; settings: for Lowest Average Tumor Size (T/C) / Tumor Disappearance: dEpoB 30 mg/kg Q2D x 6, Taxol 15 mg/kg Q2D x 6
[4] = system: DC-3F/ADII; experiment: SRB cytotoxicity, DC-3F/ADII; format: cell-based, hamster; settings: Mesocricetus auratus, DC3F
Summary of the method: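 Hamster lung fibroblast DC-3F sublines selected with actinomycin D (ADII moderate, ADX very strong MDR), maintained under selecting agent in RPMI 1640-10% FBS at 37° C. Monolayers exposed to six to seven drug concentrations in duplicate, TCA-fixed, stained with 0.4% SRB; absorbance 570 nm, analyzed by median-effect plot.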

[5] = system: CCRF-CEM; experiment: Drug combination analysis (combination index, XTT, 72 h); format: cell-based; settings: Homo sapiens, median-effect parameter, read-out: Dm (IC50)
[6] = system: B16 Melanoma; format: in vivo, B6D2F1 mice
[7] = Toxicity in normal nude mice; format: in vivo, athymic nude mice; settings: for Number of mice died: QD × 4, i.p.; for decrease in lymphocytes: EpoB 0.6 mg/kg or dEpoB 25 mg/kg, QDx4, i.p., preliminary; for mice died of toxicity: epothilone B 0.6 mg/kg QDx4 i.p.; for mice died / survived: desoxyepothilone B 25 mg/kg QDx4 i.p.
Procedure: For in vivo studies, paclitaxel in Cremophor-EtOH was further diluted with DMSO as needed. Vinblastine sulfate (Velban) (Eli Lilly & Co. Indianapolis, Ind.), and doxorubicin or adriamycin HCl (DX or Adr) (Pharmacia, Columbus, Ohio) in saline were diluted with DMSO as needed. DMSO was used as a vehicle for epothilones. Each mouse received ≦40 μL DMSO in all experiments.
The toxicity of EpoB and dEpoB was compared in normal athymic nude mice on the daily i.p. schedule. EpoB at 0.6 mg/kg, QDX4, i.p. led to lethality in all eight mice. […] Similar leukopenia was found with paclitaxel. Some obstructive fecal mass in the large intestine was noted following Epo treatments in the preliminary study.

[8] = Stability in human plasma (HPLC); format: in vitro ADME
Procedure: Sample Preparation. To 300 microliters of spiked plasma are added 30 microliters of methanol. The mixture is agitated and allowed to stand for 2 minutes. Then 600 microliters of methanol are added. The mixture is centrifuged. The supernatant is removed for analysis by HPLC. Analyses were performed under the following chrmotographic conditions: Column: Nova-Pak C18, 15 cm. Eluant: 50% acetonitrile/water with 0.8% triethylamine, 0.2% phosphoric acid. Detection: UV (250 nm).

[9] = 0.4 mg/kg QD × 6 from day 1, day 5
[10] = 0.4 mg/kg QD × 6 from day 1, day 9
[11] = 0.4 mg/kg QD × 6 from day 1, day 11
[12] = 0.8 mg/kg QD × 5 from day 1, day 5
[13] = 0.8 mg/kg QD × 5 from day 1, day 7
[14] = 0.8 mg/kg QD × 5 from day 1, day 11
[15] = 10 mg/kg QD × 8 from day 1, day 5
[16] = 10 mg/kg QD × 8 from day 1, day 7
[17] = 10 mg/kg QD × 8 from day 1, day 9
[18] = 10 mg/kg QD × 8 from day 1, day 11

Structure (SMILES): CC(=O)O[C@H]1C(=O)[C@@]2(C)[C@H]([C@H](OC(=O)c3ccccc3)[C@]3(O)C[C@H](OC(=O)[C@H](O)[C@@H](NC(=O)c4ccccc4)c4ccccc4)C(C)=C1C3(C)C)[C@]1(OC(C)=O)CO[C@@H]1C[C@@H]2O [Taxol ®, paclitaxel]
- LD50 [1]: 12 mg/kg
- Lowest Average Tumor Size (T/C) ([2]; CCRF/VBL Leukemia): 0.76 T/C
- Tumor Disappearance ([2]; CCRF/VBL Leukemia): 0
- Lowest Average Tumor Size (T/C) [3]: 0.01 T/C
- Tumor Disappearance [3]: 0
- IC50 [4]: 3200 nM
- IC50 [5]: 1.09 nM

Structure (SMILES): C/C(=C\c1csc(C)n1)[C@@H]1C[C@@H]2O[C@]2(C)CCC[C@H](C)[C@H](O)[C@@H](C)C(=O)C(C)(C)[C@@H](O)CC(=O)O1 [Epothilone B, epothilone B]
- # Mice Died ([6]; 0.4 mg/kg QD × 6 from day 1): 1/8
- Average weight change ([6]; 0.4 mg/kg QD × 6 from day 1, day 3): -0.2 g
- Average Tumor Volume (T/C) [6, 9]: 1.08
- Average weight change [6, 9]: -0.6 g
- Average weight change ([6]; 0.4 mg/kg QD × 6 from day 1, day 7): -1.1 g
- Average Tumor Volume (T/C) [6, 10]: 1.27
- Average weight change [6, 10]: -3.4 g
- Average Tumor Volume (T/C) [6, 11]: 1.07
- Average weight change [6, 11]: -3.9 g
- mice died of toxicity ([6]; 0.4 mg/kg QDx6 from day 1 (FIG. 44)): 1 of 8
- Average weight change ([6]; 0.8 mg/kg QD × 5 from day 1, day 3): 0 g
- Average Tumor Volume (T/C) [6, 12]: 0.57
- Average weight change [6, 12]: -0.8 g
- Average Tumor Volume (T/C) [6, 13]: 0.89
- Average weight change [6, 13]: -3.1 g
- Average weight change ([6]; 0.8 mg/kg QD × 5 from day 1, day 9): -4.7 g
- Average Tumor Volume (T/C) [6, 14]: 0.21
- Average weight change [6, 14]: -4.7 g
- mice died ([6]; 0.8 mg/kg QDx5 from day 1 (FIG. 44)): 5 of 8
- Died ([7]; 0.6 mg/kg QD × 4, 8 mice): 8
- Disappearance Duration ([7]; 0.6 mg/kg QD × 4, 8 mice): 8
- Number of mice died ([7]; 0.6 mg/kg, 8 mice): 8*
- body weight course ([7]; EpoB 0.6 mg/kg QDx4 i.p.): steady decreases in body weight until death
- decrease in lymphocytes [7]: 43%
- mice died of toxicity ([7]; 8 mice): all eight and 8 of 8
- mice died of toxicity ([7]; 8 mice, listed as EpoB): all eight
- reduction in average body weight ([7]; epothilone B 0.6 mg/kg i.p. for 4 days): 33%

Structure (SMILES): CC[C@]1(O)C[C@@H]2CN(CCc3c([nH]c4ccccc34)[C@@](C(=O)OC)(c3cc4c(cc3OC)N(C)[C@H]3[C@@](O)(C(=O)OC)[C@H](OC(C)=O)[C@]5(CC)C=CCN6CC[C@]43[C@@H]65)C2)C1 [Vinblastine, Vinblastine sulfate]
- IC50 [4]: 78.9 nM
- IC50 [5]: 0.61 nM

Structure (SMILES): C/C1=C/C[C@@H](/C(C)=C/c2csc(C)n2)OC(=O)C[C@H](O)C(C)(C)C(=O)[C@H](C)[C@@H](O)[C@@H](C)CCC1 [Desoxyepothilone B, desoxyepothilone B]
- # Mice Died ([6]; 10 mg/kg QD × 8 from day 1): 0/6
- Average weight change ([6]; 10 mg/kg QD × 8 from day 1, day 3): -0.7 g
- Average Tumor Volume (T/C) [6, 15]: 0.23
- Average weight change [6, 15]: -0.9 g
- Average Tumor Volume (T/C) [6, 16]: 0.22
- Average weight change [6, 16]: -1.1 g
- Average Tumor Volume (T/C) [6, 17]: 0.51
- Average weight change [6, 17]: -1.5 g
- Average Tumor Volume (T/C) [6, 18]: 0.28
- Average weight change [6, 18]: -0.3 g
- mice died ([6]; 10 mg/kg QDx8 from day 1 (FIG. 44)): 0 of 8
- # Mice Died ([6]; 20 mg/kg QD1-4,7-8): 0/6
- Average weight change ([6]; 20 mg/kg QD1-4,7-8, day 3): -1.3 g
- Average Tumor Volume (T/C) ([6]; 20 mg/kg QD1-4,7-8, day 5): 0.59
- Average weight change ([6]; 20 mg/kg QD1-4,7-8, day 5): -2.2 g
- Average Tumor Volume (T/C) ([6]; 20 mg/kg QD1-4,7-8, day 7): 0.63
- Average weight change ([6]; 20 mg/kg QD1-4,7-8, day 7): -1.3 g
- Average Tumor Volume (T/C) ([6]; 20 mg/kg QD1-4,7-8, day 9): 0.58
- Average weight change ([6]; 20 mg/kg QD1-4,7-8, day 9): -1.6 g
- Average weight change ([6]; 20 mg/kg QD1-4,7-8, day 11): -0.8 g
- Therapeutic effect Rank Order ([6]; mouse, in vivo, ip): dEpoB > Taxol ® >> EpoB
- half-life in human plasma [8]: about 75 hours
- Therapeutic effect Rank Order ([2]; CCRF-CEM/VBL, i.v. infusion): dEpoB >>> Taxol ®
- Lowest Average Tumor Size (T/C) ([2]; CCRF/VBL Leukemia): 0 T/C
- Tumor Disappearance ([2]; CCRF/VBL Leukemia): 2/2
- Therapeutic Effects dEpoB vs Taxol ([2]; CCRF/VBL Leukemia, dEpoB 30 mg/kg Q2D x 5 vs Taxol 15 mg/kg Q2D x 5): >>>
- Lowest Average Tumor Size (T/C) [3]: 0.02 T/C
- Tumor Disappearance [3]: 0
- Therapeutic Effects dEpoB vs Taxol ([3]; dEpoB 30 mg/kg Q2D x 6 vs Taxol 15 mg/kg Q2D x 6): ≦
- Therapeutic effect Rank Order ([3]; i.v. infusion): Taxol ® ≧ dEpoB
- Died ([7]; 25 mg/kg QD × 4, 6 mice): 0
- Disappearance Duration ([7]; 25 mg/kg QD × 4, 6 mice): 0
- Number of mice died ([7]; 25 mg/kg, 6 mice): 0
- decrease in lymphocytes [7]: 43%
- body weight course ([7]; dEpoB 25 mg/kg daily i.p. for 4 days, listed as dEpoB): maintained approximately the same average body weight
- body weight course ([7]; dEpoB 25 mg/kg daily i.p. for 4 days, listed as desoxyepothilone B): no reduction in average body weight
- mice died / survived ([7]; 6 mice): all six mice survived
- mice died / survived ([7]; 6 mice, listed as dEpoB): zero of six
